Where two headings read alike, the source gives them in different places.
Settings: thioether bond
[1] = from H-Gly-Pro-Ala(3-Cl)-Leu-Gly-Val-Leu-Gly-Lys-Leu-Hcy-Pro-Gly-OH, 29-membered ring, Na2CO3 (1 mg/mL, pH 10.5), ACN/H2O 1:1, 25.0 °C

## CC(C)C[C@@H]1NC(=O)[C@@H](NC(=O)[C@@H]2CCCN2C(=O)CN)CCSCC[C@@H](C(=O)N2CCC[C@H]2C(=O)NCC(=O)O)NC(=O)[C@H](CC(C)C)NC(=O)[C@H](CCCCN)NC(=O)CNC(=O)[C@H](CC(C)C)NC(=O)[C@H](C(C)C)NC(=O)CNC1=O [2G3-EETE]
From H-Gly-Pro-Abu(4-Cl)-Leu-Gly-Val-Leu-Gly-Lys-Leu-Hcy-Pro-Gly-OH, 30-membered ring, Na2CO3 (1 mg/mL, pH 10.5), ACN/H2O 1:1, 25.0 °C
  ring closure, yield after HPLC: 75%

## CC(C)C[C@@H]1NC(=O)[C@@H](NC(=O)[C@@H]2CCCN2C(=O)CN)CCSC[C@@H](C(=O)N2CCC[C@H]2C(=O)NCC(=O)O)NC(=O)[C@H](CC(C)C)NC(=O)[C@H](CCCCN)NC(=O)CNC(=O)[C@H](CC(C)C)NC(=O)[C@H](C(C)C)NC(=O)CNC1=O [2G3-EMTE]
From H-Gly-Pro-Abu(4-Cl)-Leu-Gly-Val-Leu-Gly-Lys-Leu-Cys-Pro-Gly-OH, 29-membered ring, Na2CO3 (1 mg/mL, pH 10.5), ACN/H2O 1:1, 25.0 °C
  ring closure, yield after HPLC: 84%

## CC(C)C[C@@H]1NC(=O)[C@@H](NC(=O)[C@@H]2CCCN2C(=O)CN)CSCC[C@@H](C(=O)N2CCC[C@H]2C(=O)NCC(=O)O)NC(=O)[C@H](CC(C)C)NC(=O)[C@H](CCCCN)NC(=O)CNC(=O)[C@H](CC(C)C)NC(=O)[C@H](C(C)C)NC(=O)CNC1=O [2G3-METE]
From H-Gly-Pro-Cys-Leu-Gly-Val-Leu-Gly-Lys-Leu-Abu(4-Cl)-Pro-Gly-OH, 29-membered ring, Na2CO3 (1 mg/mL, pH 10.5), ACN/H2O 1:1, 25.0 °C
  ring closure, yield after HPLC: 36%

## CC(C)C[C@@H]1NC(=O)[C@@H](NC(=O)[C@@H]2CCCN2C(=O)CN)CSC[C@@H](C(=O)N2CCC[C@H]2C(=O)NCC(=O)O)NC(=O)[C@H](CC(C)C)NC(=O)[C@H](CCCCN)NC(=O)CNC(=O)[C@H](CC(C)C)NC(=O)[C@H](C(C)C)NC(=O)CNC1=O [2G3-MMTE]
From H-Gly-Pro-Ala(3-Cl)-Leu-Gly-Val-Leu-Gly-Lys-Leu-Cys-Pro-Gly-OH, 28-membered ring, Na2CO3 (1 mg/mL, pH 10.5), ACN/H2O 1:1, 25.0 °C
  ring closure, yield after HPLC: 87%

## CC(C)C[C@@H]1NC(=O)[C@@H](NC(=O)[C@@H]2CCCN2C(=O)CNC(=O)[C@H](C)N)CCSC[C@@H](C(=O)N2CCC[C@H]2C(=O)NCC(=O)O)NC(=O)[C@H](CC(C)C)NC(=O)[C@H](CCCCN)NC(=O)CNC(=O)[C@H](CC(C)C)NC(=O)[C@H](C(C)C)NC(=O)CNC1=O [3G3-EMTE]
From H-Ala-Gly-Pro-Abu(4-Cl)-Leu-Gly-Val-Leu-Gly-Lys-Leu-Cys-Pro-Gly-OH, 29-membered ring, Na2CO3 (1 mg/mL, pH 10.5), ACN/H2O 1:1, 0.71 mM, 25.0 °C
  ring closure, yield after HPLC: 94%

## CC(C)C[C@@H]1NC(=O)[C@@H](NC(=O)[C@@H]2CCCN2C(=O)CNC(=O)[C@H](C)NC(=O)OCC2c3ccccc3-c3ccccc32)CCSC[C@@H](C(=O)N2CCC[C@H]2C(=O)NCC(=O)O)NC(=O)[C@H](CC(C)C)NC(=O)[C@H](CCCCN)NC(=O)CNC(=O)[C@H](CC(C)C)NC(=O)[C@H](C(C)C)NC(=O)CNC1=O [3G3-EMTE]
From Fmoc-Ala-Gly-Pro-Abu(4-Cl)-Leu-Gly-Val-Leu-Gly-Lys-Leu-Cys-Pro-Gly-OH, 29-membered ring, Na2CO3 (1 mg/mL, pH 10.5), ACN/H2O 1:1, 0.63 mM, 25.0 °C, 2 steps
  ring closure, yield after HPLC: 33%

## CC(C)C[C@@H]1NC(=O)[C@@H](NC(=O)[C@@H]2CCCN2C(=O)CNC(=O)[C@H](C)N)CSC[C@@H](C(=O)N2CCC[C@H]2C(=O)NCC(=O)O)NC(=O)[C@H](CC(C)C)NC(=O)[C@H](CCCCN)NC(=O)CNC(=O)[C@H](CC(C)C)NC(=O)[C@H](C(C)C)NC(=O)CNC1=O [3G3-MMTE]
From H-Ala-Gly-Pro-Ala(3-Cl)-Leu-Gly-Val-Leu-Gly-Lys-Leu-Cys-Pro-Gly-OH, 28-membered ring, Na2CO3 (1 mg/mL, pH 10.5), ACN/H2O 1:1, 25.0 °C
  ring closure, yield after HPLC: 89%

## CC[C@H](C)[C@@H]1NC(=O)[C@H](CC(C)C)NC(=O)[C@@H](NC(=O)[C@@H]2CCCN2C(=O)CN)CSC[C@@H](C(N)=O)NC(=O)[C@H](CCCNC(=N)N)NC(=O)[C@H](CC(=O)O)NC(=O)[C@@H]2CCCN2C(=O)[C@H](C)NC(=O)[C@H](CC(C)C)NC1=O [CB10-MMTE]
From H-Gly-Pro-Ala(3-Br)-Leu-Ile-Leu-Ala-Pro-Asp-Arg-Cys-NH2, 28-membered ring, Na2CO3 (pH 10.5), H2O, 0.15 mM
  ring closure, yield after HPLC: 27%

## CC(C)C[C@@H]1NC(=O)[C@H](CCCCN)NC(=O)CNC(=O)[C@H](CC(C)C)NC(=O)[C@H](C(C)C)NC(=O)CNC(=O)[C@H](CC(C)C)NC(=O)[C@@H](N)CCSCC[C@@H](C(N)=O)NC1=O [G3-EETE]
From H-Abu(4-Cl)-Leu-Gly-Val-Leu-Gly-Lys-Leu-Hcy-NH2, 30-membered ring, Na2CO3 (1 mg/mL, pH 10.5), ACN/H2O 1:1, 25.0 °C
  ring closure, yield after HPLC: 48%

## CC(C)C[C@@H]1NC(=O)[C@H](CCCCN)NC(=O)CNC(=O)[C@H](CC(C)C)NC(=O)[C@H](C(C)C)NC(=O)CNC(=O)[C@H](CC(C)C)NC(=O)[C@@H](N)CCSC[C@@H](C(N)=O)NC1=O [G3-EMTE]
From H-Abu(4-Cl)-Leu-Gly-Val-Leu-Gly-Lys-Leu-Cys-NH2, 29-membered ring, Na2CO3 (1 mg/mL, pH 10.5), ACN/H2O 1:1, 25.0 °C
  ring closure, yield after HPLC: 51%

## CC(C)C[C@@H]1NC(=O)[C@H](CCCCN)NC(=O)CNC(=O)[C@H](CC(C)C)NC(=O)[C@H](C(C)C)NC(=O)CNC(=O)[C@H](CC(C)C)NC(=O)[C@@H](N)CSCC[C@@H](C(N)=O)NC1=O [G3-METE]
From H-Ala(3-Cl)-Leu-Gly-Val-Leu-Gly-Lys-Leu-Hcy-NH2, 29-membered ring, Na2CO3 (1 mg/mL, pH 10.5), ACN/H2O 1:1, 25.0 °C
  ring closure, yield after HPLC: 52%

## CC(C)C[C@@H]1NC(=O)[C@H](CCCCN)NC(=O)CNC(=O)[C@H](CC(C)C)NC(=O)[C@H](C(C)C)NC(=O)CNC(=O)[C@H](CC(C)C)NC(=O)[C@@H](N)CSC[C@@H](C(N)=O)NC1=O [G3-MMTE]
From H-Ala(3-Cl)-Leu-Gly-Val-Leu-Gly-Lys-Leu-Cys-NH2, 28-membered ring, Na2CO3 (1 mg/mL, pH 10.5), ACN/H2O 1:1, 25.0 °C
  ring closure, yield after HPLC: 49%

## CC(C)C[C@@H]1NC(=O)[C@@H](NC(=O)[C@@H]2CCCN2C(=O)CNC(=O)[C@H](C)NC(=O)OCC2c3ccccc3-c3ccccc32)CCSC[C@@H](C(=O)N2CCC[C@H]2C(=O)NCC(=O)O)NC(=O)[C@H](CC(C)C)NC(=O)[C@H](CCCCN)NC(=O)CNC(=O)[C@H](CC(C)C)NC(=O)[C@H](C(C)C)NC(=O)CNC1=O [N^α -Fmoc-3G3-EMTE]
From Fmoc-Ala-Gly-Pro-Abu(4-Cl)-Leu-Gly-Val-Leu-Gly-Lys-Leu-Cys-Pro-Gly-OH, 29-membered ring, Na2CO3 (1 mg/mL, pH 10.5), ACN/H2O 1:1, 0.63 mM, 25.0 °C
  ring closure, yield after HPLC: 19%

## CC(C)C[C@@H]1NC(=O)[C@@H](NC(=O)[C@@H]2CCCN2C(=O)CN)CSCC[C@@H](C(=O)N2CCC[C@H]2C(=O)NCC(=O)O)NC(=O)[C@H](CC(C)C)NC(=O)[C@H](CCCCN)NC(=O)CNC(=O)[C@H](CC(C)C)NC(=O)[C@H](C(C)C)NC(=O)CNC1=O [d-2G3-METE]
[1]
  ring closure, yield after HPLC: 16%

## CC(C)C[C@@H]1NC(=O)[C@@H](NC(=O)[C@@H]2CCCN2C(=O)CN)CSCC[C@@H](C(=O)N2CCC[C@H]2C(=O)NCC(=O)O)NC(=O)[C@H](CC(C)C)NC(=O)[C@H](CCCCN)NC(=O)CNC(=O)[C@H](CC(C)C)NC(=O)[C@H](C(C)C)NC(=O)CNC1=O [l-2G3-METE]
[1]
  ring closure, yield after HPLC: 29%

From patent publication US6031073A, “Cyclic polypeptides comprising a thioether linkage and methods for their preparation” (La Jolla Pharmaceutical Company, priority 1997, dated 2000)
